According to PMC6508984 (Journal of medicinal chemistry, 2019):

How the values were obtained:
[1] = molecular target: GluA1o (Rattus norvegicus, UniProt P19490); details: Hill coefficient of binding curve
[2] = molecular target: GluA2i(Q) (Rattus norvegicus, UniProt P19491); assay: Ca2+/Fluo-4 assay, GluA2; format: cell-based; details: for GluA2i(Q) SAR@: concentration giving significant agonist response >5% of the maximal response induced by (S)-Glu: HEK293, complete concentration-response curve could not be obtained
GluA2i(Q), sequence (P19491 22-883 isoform P19491-2 limits assumed): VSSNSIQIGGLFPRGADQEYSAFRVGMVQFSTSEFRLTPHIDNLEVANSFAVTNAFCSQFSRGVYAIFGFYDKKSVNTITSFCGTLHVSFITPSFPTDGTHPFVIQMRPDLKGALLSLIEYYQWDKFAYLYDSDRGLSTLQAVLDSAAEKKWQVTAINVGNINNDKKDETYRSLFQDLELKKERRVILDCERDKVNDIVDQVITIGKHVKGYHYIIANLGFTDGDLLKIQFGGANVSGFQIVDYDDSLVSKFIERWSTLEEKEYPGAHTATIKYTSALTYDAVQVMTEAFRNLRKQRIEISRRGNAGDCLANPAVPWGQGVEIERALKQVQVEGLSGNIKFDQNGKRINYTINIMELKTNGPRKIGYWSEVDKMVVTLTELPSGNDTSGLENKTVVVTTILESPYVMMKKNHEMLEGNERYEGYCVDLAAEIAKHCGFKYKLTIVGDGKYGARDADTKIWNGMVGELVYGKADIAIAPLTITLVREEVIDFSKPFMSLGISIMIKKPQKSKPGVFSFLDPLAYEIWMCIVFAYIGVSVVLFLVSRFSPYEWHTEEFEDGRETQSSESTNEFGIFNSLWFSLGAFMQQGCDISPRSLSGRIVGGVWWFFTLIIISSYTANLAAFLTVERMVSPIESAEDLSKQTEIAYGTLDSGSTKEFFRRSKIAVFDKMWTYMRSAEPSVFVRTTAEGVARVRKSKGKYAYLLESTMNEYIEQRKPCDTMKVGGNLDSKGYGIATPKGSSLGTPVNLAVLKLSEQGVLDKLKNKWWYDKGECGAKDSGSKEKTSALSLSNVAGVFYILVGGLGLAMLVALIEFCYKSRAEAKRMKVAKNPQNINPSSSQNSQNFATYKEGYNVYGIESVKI

[3] = molecular target: GluA2(R)o (Rattus norvegicus, UniProt P19491, Q607R); details: Hill coefficient of binding curve
GluA2(R)o, sequence (P19491 22-883 Q607R): as the sequence (P19491 22-883 isoform P19491-2 limits assumed) above, with Q586R, T744N, P745A, S754N, V758L, A775S, K776G, D777G, S778G, G779D counted along it

[4] = molecular target: GluA3o (Rattus norvegicus, UniProt P19492); details: Hill coefficient of binding curve
GluA3o, sequence (P19492 23-888): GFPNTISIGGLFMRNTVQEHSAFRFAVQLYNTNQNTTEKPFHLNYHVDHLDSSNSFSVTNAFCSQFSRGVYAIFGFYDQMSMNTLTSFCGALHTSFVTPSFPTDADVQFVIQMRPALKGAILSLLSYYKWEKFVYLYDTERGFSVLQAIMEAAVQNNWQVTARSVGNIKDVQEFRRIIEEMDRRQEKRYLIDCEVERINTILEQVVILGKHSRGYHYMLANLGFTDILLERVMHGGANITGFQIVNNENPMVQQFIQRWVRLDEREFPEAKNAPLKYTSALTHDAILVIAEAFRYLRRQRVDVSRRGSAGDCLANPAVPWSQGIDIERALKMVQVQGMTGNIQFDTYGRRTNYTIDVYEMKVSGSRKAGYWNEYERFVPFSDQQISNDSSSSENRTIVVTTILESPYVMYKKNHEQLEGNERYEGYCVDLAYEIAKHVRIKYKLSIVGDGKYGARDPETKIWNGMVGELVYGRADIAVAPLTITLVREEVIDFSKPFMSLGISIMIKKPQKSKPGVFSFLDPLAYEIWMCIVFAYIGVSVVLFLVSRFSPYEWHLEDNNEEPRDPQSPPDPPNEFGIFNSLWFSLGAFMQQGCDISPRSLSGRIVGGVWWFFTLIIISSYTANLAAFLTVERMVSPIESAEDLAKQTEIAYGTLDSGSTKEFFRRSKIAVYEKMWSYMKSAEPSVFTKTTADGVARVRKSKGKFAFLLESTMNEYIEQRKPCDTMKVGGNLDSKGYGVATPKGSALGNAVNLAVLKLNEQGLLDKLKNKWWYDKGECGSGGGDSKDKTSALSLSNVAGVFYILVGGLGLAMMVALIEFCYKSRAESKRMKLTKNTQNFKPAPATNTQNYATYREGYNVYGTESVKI

[5] = molecular target: GluA3i (Rattus norvegicus, UniProt P19492); assay: Ca2+/Fluo-4 assay, GluA3i-HEK293 cell line; format: cell-based
GluA3i, sequence (P19492 23-888 isoform P19492-2 limits assumed): as the sequence (P19492 23-888) above, with N748T, A749P, N758S, L762I, S779A, G780K, G781D, G782S, D783G counted along it

[6] = molecular target: GluA4i (Rattus norvegicus, UniProt P19493); assay: cell-based; details: GluA4i EC50, HEK293; 10 mM Ca2+ and 100 μM cyclothiazide; tested up to 1000 μM
[7] = molecular target: GluA1i (Rattus norvegicus, UniProt P19490); assay: Ca2+/Fluo-4 assay, GluA1i-HEK293 cell line; format: cell-based
GluA1i, sequence (P19490 19-907 isoform P19490-2 limits assumed): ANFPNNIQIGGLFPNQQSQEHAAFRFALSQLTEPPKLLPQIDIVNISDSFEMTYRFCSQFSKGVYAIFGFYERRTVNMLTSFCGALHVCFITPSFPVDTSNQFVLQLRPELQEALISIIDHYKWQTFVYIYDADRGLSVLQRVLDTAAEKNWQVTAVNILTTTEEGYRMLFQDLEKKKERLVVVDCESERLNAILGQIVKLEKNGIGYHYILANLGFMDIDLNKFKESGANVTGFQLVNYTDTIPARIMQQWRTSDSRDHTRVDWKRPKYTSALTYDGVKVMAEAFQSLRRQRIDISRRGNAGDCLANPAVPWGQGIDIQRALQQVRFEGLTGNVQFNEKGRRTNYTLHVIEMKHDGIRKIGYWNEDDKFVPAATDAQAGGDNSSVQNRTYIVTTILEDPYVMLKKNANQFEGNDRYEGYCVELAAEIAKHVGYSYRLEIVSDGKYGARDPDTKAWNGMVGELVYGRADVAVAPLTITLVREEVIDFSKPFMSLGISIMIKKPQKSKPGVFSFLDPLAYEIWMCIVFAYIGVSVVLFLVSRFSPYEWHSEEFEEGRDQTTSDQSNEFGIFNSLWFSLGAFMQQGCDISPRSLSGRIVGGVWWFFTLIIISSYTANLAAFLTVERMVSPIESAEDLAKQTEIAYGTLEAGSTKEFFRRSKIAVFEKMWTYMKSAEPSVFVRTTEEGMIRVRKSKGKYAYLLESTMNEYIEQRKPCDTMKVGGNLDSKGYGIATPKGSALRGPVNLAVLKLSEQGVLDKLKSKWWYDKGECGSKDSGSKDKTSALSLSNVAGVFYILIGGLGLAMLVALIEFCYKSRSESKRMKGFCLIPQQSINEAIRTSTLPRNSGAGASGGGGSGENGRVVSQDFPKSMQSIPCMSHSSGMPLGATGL

[8] = molecular target: GluN1/2C (Rattus norvegicus, UniProt P35439+Q00961); details: 100 μM, in absence of both Glu and Gly
[9] = molecular target: GluN1/2B (Rattus norvegicus, UniProt P35439+Q00960); details: 100 μM, in absence of both Glu and Gly
GluN1/2B, sequence (Q00960 27-1482, other chains not shown): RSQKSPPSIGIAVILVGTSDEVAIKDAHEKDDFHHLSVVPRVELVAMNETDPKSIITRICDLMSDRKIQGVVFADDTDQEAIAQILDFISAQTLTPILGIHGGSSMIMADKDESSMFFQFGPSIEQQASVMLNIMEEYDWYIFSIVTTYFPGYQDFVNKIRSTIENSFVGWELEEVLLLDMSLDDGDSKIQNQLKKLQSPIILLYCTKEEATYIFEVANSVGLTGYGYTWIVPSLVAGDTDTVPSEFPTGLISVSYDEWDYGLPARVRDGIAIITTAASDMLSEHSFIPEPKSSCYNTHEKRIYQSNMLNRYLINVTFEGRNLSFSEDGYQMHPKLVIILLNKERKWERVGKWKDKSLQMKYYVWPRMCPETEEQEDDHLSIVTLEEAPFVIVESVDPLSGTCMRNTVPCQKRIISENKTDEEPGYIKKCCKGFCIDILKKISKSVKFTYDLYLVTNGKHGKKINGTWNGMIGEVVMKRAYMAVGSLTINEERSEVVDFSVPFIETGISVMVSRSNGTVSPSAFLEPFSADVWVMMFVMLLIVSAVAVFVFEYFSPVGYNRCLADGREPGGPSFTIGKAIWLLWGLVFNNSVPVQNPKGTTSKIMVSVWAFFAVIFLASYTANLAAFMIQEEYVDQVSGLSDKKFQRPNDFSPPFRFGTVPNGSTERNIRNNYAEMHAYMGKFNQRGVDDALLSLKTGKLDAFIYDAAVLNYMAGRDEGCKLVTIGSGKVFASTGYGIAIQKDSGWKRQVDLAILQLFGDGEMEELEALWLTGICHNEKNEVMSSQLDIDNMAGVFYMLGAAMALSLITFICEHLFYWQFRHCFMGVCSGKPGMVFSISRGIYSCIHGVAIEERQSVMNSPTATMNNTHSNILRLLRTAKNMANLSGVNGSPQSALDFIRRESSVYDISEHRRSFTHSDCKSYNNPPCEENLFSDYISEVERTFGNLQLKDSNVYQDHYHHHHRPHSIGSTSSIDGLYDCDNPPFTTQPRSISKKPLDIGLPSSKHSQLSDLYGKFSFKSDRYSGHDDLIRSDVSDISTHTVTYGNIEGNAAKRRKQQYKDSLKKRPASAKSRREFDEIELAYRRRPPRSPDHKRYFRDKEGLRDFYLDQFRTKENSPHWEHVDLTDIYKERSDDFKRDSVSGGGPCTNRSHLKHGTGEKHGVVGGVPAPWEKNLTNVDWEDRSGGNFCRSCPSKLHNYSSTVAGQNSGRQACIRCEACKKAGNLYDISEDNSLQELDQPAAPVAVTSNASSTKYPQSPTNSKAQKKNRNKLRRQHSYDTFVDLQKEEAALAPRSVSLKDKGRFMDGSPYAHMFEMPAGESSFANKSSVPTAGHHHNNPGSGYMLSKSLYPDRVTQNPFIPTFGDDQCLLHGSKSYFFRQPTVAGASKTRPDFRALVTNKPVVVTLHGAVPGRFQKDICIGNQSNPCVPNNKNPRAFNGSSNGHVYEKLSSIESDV

[10] = molecular target: GluN1/2D (Rattus norvegicus, UniProt P35439+Q62645); details: 100 μM, in absence of both Glu and Gly
[11] = molecular target: GluA4o (Rattus norvegicus, UniProt P19493); details: Hill coefficient of binding curve
GluA4o, sequence (P19493 21-902): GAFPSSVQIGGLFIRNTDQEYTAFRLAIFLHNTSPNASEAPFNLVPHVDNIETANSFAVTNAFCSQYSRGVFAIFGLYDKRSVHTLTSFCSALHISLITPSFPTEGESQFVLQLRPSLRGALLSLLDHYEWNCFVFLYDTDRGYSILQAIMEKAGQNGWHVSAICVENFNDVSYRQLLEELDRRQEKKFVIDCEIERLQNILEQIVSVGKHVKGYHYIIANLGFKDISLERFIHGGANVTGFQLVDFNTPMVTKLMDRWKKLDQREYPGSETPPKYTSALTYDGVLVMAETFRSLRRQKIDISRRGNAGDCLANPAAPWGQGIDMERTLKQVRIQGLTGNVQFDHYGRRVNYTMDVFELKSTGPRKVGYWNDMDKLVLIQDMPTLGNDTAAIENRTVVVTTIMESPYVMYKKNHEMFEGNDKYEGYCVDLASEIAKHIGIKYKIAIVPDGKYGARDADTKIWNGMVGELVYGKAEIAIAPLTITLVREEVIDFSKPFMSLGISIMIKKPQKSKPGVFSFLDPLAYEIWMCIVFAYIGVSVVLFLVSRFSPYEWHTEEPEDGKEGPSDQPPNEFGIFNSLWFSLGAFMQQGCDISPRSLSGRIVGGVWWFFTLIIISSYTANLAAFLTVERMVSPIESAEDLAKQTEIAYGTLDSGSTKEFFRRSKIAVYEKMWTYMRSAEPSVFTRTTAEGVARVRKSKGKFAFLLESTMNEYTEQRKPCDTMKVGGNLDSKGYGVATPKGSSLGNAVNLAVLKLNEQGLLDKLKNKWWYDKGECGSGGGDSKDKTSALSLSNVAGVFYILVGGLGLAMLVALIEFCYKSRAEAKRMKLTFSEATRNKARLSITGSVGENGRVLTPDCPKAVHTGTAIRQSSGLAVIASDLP

GluA1o, sequence (P19490 19-907): as the sequence (P19490 19-907 isoform P19490-2 limits assumed) above, with G740N, S750N, V754L, S760N, K772G, D773G, S774G, G775D counted along it

| SMILES | GluA1o nH [1] | GluA2i(Q) SAR@: concentration giving significant agonist response >5% of the maximal response induced by (S)-Glu [2] | GluA2(R)o nH [3] | GluA3o nH [4] | EC50 [2] [mM] | EC50 [5] [mM] | EC50 [7] [mM] | other results |
| --- | --- | --- | --- | --- | --- | --- | --- | --- |
| CCCn1nnc(O)c1CC(N)C(=O)O (racemic) [Compound 6c, (RS) 2-Amino-3-(4-hydroxy-1-propyl-1H-1,2,3-triazol-5-yl)propanoic acid] | 0.81 ± 0.07 | SAR@ 1000 μM | 1.55 ± 0.65 | 0.75 ± 0.09 | – | – | – | – |
| CCn1nc(O)c(CC(N)C(=O)O)n1 (racemic) [Compound 7b, (RS) 2-Amino-3-(2-ethyl-5-hydroxy-2H-1,2,3-triazol-4-yl)propanoic acid] | – | – | – | – | > 1 | > 1 | > 1 | EC50 [6]: > 1 mM |
| Cn1nc(O)c(C(N)C(=O)O)n1 (racemic) [Compound 8, (RS) 2-Amino-2-(5-hydroxy-2-methyl-2H-1,2,3-triazol-4-yl)acetic acid] | – | – | – | – | – | – | – | Activation by compound alone [8]: able to activate; Activation by compound alone [9]: able to activate; Activation by compound alone [10]: able to activate |
| CCCn1nc(O)c(CC(N)C(=O)O)n1 (racemic) [Compound 7c, (RS) 2-Amino-3-(5-hydroxy-2-propyl-2H-1,2,3-triazol-4-yl)propanoic acid] | – | – | – | – | > 1 | > 1 | > 1 | – |
| Cn1nnc(O)c1CC(N)C(=O)O (racemic) [Compound 6a, (RS) 2-Amino-3-(4-hydroxy-1-methyl-1H-1,2,3-triazol-5-yl)propanoic acid] | 1.02 ± 0.17 | SAR@ 300 μM | 0.95 ± 0.09 | 0.95 ± 0.25 | – | – | – | GluA4o nH [11]: 0.89 ± 0.07 |
